The record followed here is ChEMBL document CHEMBL1201862, “PubChem BioAssay data set” (2004).

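Growth conditions: 96-well plates. Treatment: test compound, 48 hours, 5 concentrations. Analysis: linear interpolation between bracketing concentrations; unreached endpoints set to highest concentration. GI50 = concentration required for 50% inhibition of growth.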 Activity calls are given as the source filed them. No stated cut-off is given here; in the data, active = GI50 up to about 1.1 µM and inactive = higher. Residues, ends and D or L forms follow the SMILES beside them.

Some test systems named below: 786-0; CCRF-CEM; HCT-116; HCT-15; HOP-92; Hs-578T; K562; KM12; M14; MDA-MB-231; MOLT-4; NCI-H226; OVCAR-4; SK-MEL-5; SK-OV-3; SN12C; T47D; U-251; UACC-257; UO-31.
Common to all, as to experiment: DTP human tumour cell line panel, 48 h

The GI50 is the concentration giving 50% growth inhibition. Take `CC(C)(C)c1ccc(S(=O)(=O)N2C(c3cccc(C4CC[C@@H](C(=O)O)N4S(=O)(=O)c4ccc(C(C)(C)C)cc4)c3)CC[C@H]2C(=O)O)cc1` (stereo not given in full): the GI50 with 786-0 was 49.4 µM (inactive); with CCRF-CEM, 33 µM (inactive); in the assay with HCT-116 it was 38.1 µM (inactive); in the assay with HCT-15 it was 43.2 µM; in the assay with HOP-92, 58.1 µM (inactive); in the assay with Hs-578T, 47 µM (inactive). The GI50 in the assay with K562 was 37.5 µM (inactive); in the assay with KM12 it was 53.8 µM (inactive); with M14, 54.1 µM (inactive); in the assay on MDA-MB-231, > 100 µM (inactive); with MOLT-4 it was 33 µM (inactive); in the assay with NCI-H226, 71.9 µM (inactive). Moreover, the GI50 is 54.8 µM (inactive) in the assay with OVCAR-4; 57.7 µM (inactive) in the assay with SK-MEL-5; > 100 µM (inactive) with SK-OV-3; 47.3 µM (inactive) with SN12C; 29.9 µM (inactive) in the assay with T47D; 38.9 µM (inactive) in the assay on U-251. Also, the GI50 in the assay on UACC-257 was 53 µM (inactive); in the assay on UO-31, 33.5 µM (inactive).
With `C=C1NC(=O)C(CC(C(=O)C(=O)Nc2c(C)cccc2C(C)(C)C)C(=O)c2ccc3ccccc3c2)C(=O)N1` (stereo not given), the GI50 in the assay with 786-0 was > 100 µM (inactive); in the assay with CCRF-CEM it was > 100 µM (inactive); with HCT-116, > 100 µM (inactive); in the assay on HCT-15, greater than 100 µM; in the assay with HOP-92, > 100 µM (inactive); in the assay on Hs-578T, > 100 µM (inactive). Besides, the GI50 in the assay on K562, with KM12, in the assay with M14, in the assay with MDA-MB-231, with MOLT-4 and in the assay with NCI-H226 was > 100 µM (inactive) throughout. The GI50 with OVCAR-4, in the assay with SK-MEL-5, in the assay with SK-OV-3, in the assay on SN12C, in the assay with T47D and in the assay with U-251 was > 100 µM (inactive) throughout. For the same compound, the GI50 in the assay on UACC-257 and in the assay on UO-31 was > 100 µM (inactive) throughout.
With `CC1(C)N=C(N)N=C(N)N1c1cccc(OCc2cccc([N+](=O)[O-])c2)c1`, the GI50 in the assay with 786-0 is 5.78 µM (inactive); in the assay on CCRF-CEM, 5.4 µM (inactive); with HCT-116, 5.41 µM (inactive); in the assay on HCT-15, greater than 100 µM; in the assay on HOP-92 it was > 100 µM (inactive); in the assay with Hs-578T it was > 100 µM (inactive). In addition, the GI50 is 0.75 µM (active) with K562; 17.1 µM (inactive) in the assay on KM12; 51.8 µM (inactive) in the assay on M14; > 53.8 µM (inactive) in the assay with MDA-MB-231; 1.22 µM (inactive) in the assay on MOLT-4; > 100 µM (inactive) in the assay on NCI-H226. Also, the GI50 in the assay on OVCAR-4 is 39.6 µM (inactive); in the assay with SK-MEL-5 it was 4.86 µM (inactive); in the assay with SK-OV-3 it was > 100 µM (inactive); in the assay on SN12C it was 9.98 µM (inactive); in the assay with T47D, 38.3 µM (inactive); in the assay with U-251, 2.88 µM (inactive). Also, the figures for the GI50 in the assay on UACC-257 and with UO-31 were 4.29 µM (inactive) and > 100 µM (inactive), respectively.
Turning to `C(=N\c1cnc2ccccc2c1)/c1ccc2ccccc2n1`, the GI50 was > 100 µM (inactive) in the assay with 786-0; 23.8 µM (inactive) in the assay on CCRF-CEM; 35.6 µM (inactive) in the assay with HCT-116; 55.6 µM with HCT-15; > 100 µM (inactive) with HOP-92; > 100 µM (inactive) in the assay on Hs-578T. The GI50 was 52 µM (inactive) in the assay with K562; > 100 µM (inactive) in the assay on KM12; > 100 µM (inactive) with M14; > 100 µM (inactive) in the assay on MDA-MB-231; 50 µM (inactive) with MOLT-4; > 100 µM (inactive) with NCI-H226. The GI50 in the assay on OVCAR-4 was > 100 µM (inactive); in the assay on SK-MEL-5 it was > 100 µM (inactive); in the assay on SK-OV-3, > 100 µM (inactive); in the assay with SN12C it was > 100 µM (inactive); with T47D, > 100 µM (inactive); in the assay with U-251, 67.5 µM (inactive). In addition, the GI50 with UACC-257 and in the assay on UO-31 was > 100 µM (inactive) in each case.
For the compound `CC(O)(c1ccccc1)c1nccc2ccccc12` (stereo not given), the GI50 in the assay with 786-0 is > 100 µM (inactive); in the assay on CCRF-CEM, 58.6 µM (inactive); in the assay on HCT-116 it was 61.4 µM (inactive); with HCT-15 it was 53 µM; in the assay with HOP-92, 22.4 µM (inactive); in the assay with Hs-578T it was 45.8 µM (inactive). Further, the GI50 in the assay on K562 is 35.8 µM (inactive); with KM12, 36.4 µM (inactive); with M14, 74.5 µM (inactive); with MDA-MB-231, 20.1 µM (inactive); with MOLT-4 it was 41.9 µM (inactive); in the assay on NCI-H226 it was 31.5 µM (inactive). Also, the GI50 was 37.7 µM (inactive) with OVCAR-4; 44.2 µM (inactive) in the assay with SK-MEL-5; 96.6 µM (inactive) with SK-OV-3; > 100 µM (inactive) in the assay on SN12C; 68.1 µM (inactive) in the assay on T47D; 45.5 µM (inactive) in the assay with U-251. Besides, the GI50 in the assay with UACC-257 was > 100 µM (inactive); in the assay on UO-31 it was 51.3 µM (inactive).
As for `CCC(C)C(NC(=O)C(CC(C)C)NC(=O)CNC(=O)C(NC(=O)C1CCCN1C(=O)C(CC(C)C)NC(=O)C(N)Cc1ccccc1)C(C)CC)C(=O)NC(CC(C)C)C(N)=O` (stereo not given) (H-FLPIGLIL-NH2; configuration not given here), the GI50 with 786-0 is > 75 µM (inactive); in the assay on CCRF-CEM, > 75 µM (inactive); in the assay with HCT-116 it was > 75 µM (inactive); in the assay on HCT-15 it was greater than 75 µM; in the assay on HOP-92, > 75 µM (inactive); with Hs-578T, > 75 µM (inactive). Also, the GI50 with K562, in the assay with KM12, in the assay on M14, with MDA-MB-231, with MOLT-4 and with NCI-H226 was > 75 µM (inactive) each time. Also, the GI50 with OVCAR-4, in the assay with SK-MEL-5, with SK-OV-3, in the assay on SN12C, in the assay on T47D and in the assay with U-251 was > 75 µM (inactive) in each case. Besides, the GI50 with UACC-257 and in the assay on UO-31 was > 75 µM (inactive) throughout.
Turning to `COc1ccc(-c2cc(-c3ccccc3)nc(N)n2)c(O)c1`, the GI50 was > 100 µM (inactive) in the assay on 786-0; 4.59 µM (inactive) in the assay on CCRF-CEM; > 100 µM (inactive) in the assay with HCT-116; 6.03 µM in the assay on HCT-15; > 43 µM (inactive) with HOP-92; > 100 µM (inactive) with Hs-578T. In addition, the GI50 with K562 is 2.19 µM (inactive); with KM12, 4.67 µM (inactive); with M14, > 27.3 µM (inactive); in the assay on MDA-MB-231, > 26.2 µM (inactive); in the assay on MOLT-4, 4.16 µM (inactive); in the assay with NCI-H226 it was > 100 µM (inactive). Further, the GI50 was > 74.6 µM (inactive) with OVCAR-4; 7.16 µM (inactive) in the assay on SK-MEL-5; 7 µM (inactive) in the assay with SK-OV-3; > 25.3 µM (inactive) in the assay on SN12C; 5.86 µM (inactive) in the assay on T47D; 12.6 µM (inactive) with U-251. Also, the GI50 was > 100 µM (inactive) in the assay with UACC-257 and 2.13 µM (inactive) in the assay on UO-31.
Regarding `Cc1cc(-c2nc3ccccc3s2)ccc1NC(=O)[C@H](C)N`, the GI50 was 11.1 µM (inactive) with 786-0; 7.89 µM (inactive) in the assay with CCRF-CEM; 10.9 µM (inactive) in the assay on HCT-116; 14.1 µM in the assay with HCT-15; 15.7 µM (inactive) in the assay with HOP-92; 24.3 µM (inactive) with Hs-578T. Besides, the GI50 with K562 was 6.95 µM (inactive); with KM12 it was 14.4 µM (inactive); in the assay with M14 it was 3.14 µM (inactive); in the assay with MDA-MB-231, 14.3 µM (inactive); in the assay on MOLT-4, 18.2 µM (inactive); in the assay on NCI-H226, 0.942 µM (active). Also, the GI50 in the assay with OVCAR-4 is 12.2 µM (inactive); in the assay with SK-MEL-5 it was 13 µM (inactive); in the assay on SK-OV-3, 14.9 µM (inactive); in the assay with SN12C, 14.7 µM (inactive); in the assay with T47D, 0.128 µM (active); in the assay with U-251 it was 15 µM (inactive). Moreover, the GI50 is 16.9 µM (inactive) in the assay on UACC-257 and 5.78 µM (inactive) with UO-31.
In the case of `Cc1ccc(S(=O)(=O)N/N=C/C2(c3ccccc3)c3ccccc3-c3ccccc32)cc1`, the GI50 was 12.1 µM (inactive) in the assay on 786-0; 4.16 µM (inactive) in the assay with CCRF-CEM; 7.08 µM (inactive) in the assay on HCT-116; 9.27 µM with HCT-15; 12.6 µM (inactive) in the assay with HOP-92; 14.3 µM (inactive) in the assay with Hs-578T. Also, the GI50 is 4.56 µM (inactive) in the assay with K562; 7.76 µM (inactive) in the assay on KM12; 10.9 µM (inactive) with M14; 6.64 µM (inactive) in the assay with MDA-MB-231; 7.18 µM (inactive) with MOLT-4; 14.7 µM (inactive) in the assay with NCI-H226. Further, the GI50 is 10.3 µM (inactive) in the assay on OVCAR-4; 11.6 µM (inactive) in the assay with SK-MEL-5; 15.4 µM (inactive) in the assay on SK-OV-3; 11.7 µM (inactive) in the assay with SN12C; 2.09 µM (inactive) in the assay with T47D; 11.8 µM (inactive) in the assay on U-251. Moreover, the results for the GI50 in the assay with UACC-257 and with UO-31 were 15.6 µM (inactive) and 5.82 µM (inactive), respectively.
With `CSc1nc(Cl)c2c(n1)Sc1nc3ccccc3n1C2O` (stereo not given), the GI50 in the assay with 786-0 was 2.15 µM (inactive); in the assay with CCRF-CEM it was 1.36 µM (inactive); with HCT-116, 2.48 µM (inactive); with HCT-15, 3.4 µM; in the assay with HOP-92, 5.31 µM (inactive); in the assay with Hs-578T, 5.36 µM (inactive). The GI50 in the assay with K562 is 3.71 µM (inactive); in the assay with KM12 it was 3.44 µM (inactive); with M14 it was 3.46 µM (inactive); in the assay on MDA-MB-231, 4.88 µM (inactive); in the assay with MOLT-4, 3.48 µM (inactive); in the assay on NCI-H226 it was 29.1 µM (inactive). The GI50 in the assay on OVCAR-4 is 17.2 µM (inactive); with SK-MEL-5 it was 2.5 µM (inactive); in the assay on SK-OV-3, 47.9 µM (inactive); with SN12C, 4.85 µM (inactive); in the assay on T47D it was 15.3 µM (inactive); with U-251 it was 3.67 µM (inactive). For the same compound, the GI50 with UACC-257 is 13.5 µM (inactive); with UO-31 it was 3.44 µM (inactive).
